Measurements: article PMC5159840, “A Clickable Analogue of Ketamine Retains NMDA Receptor Activity, Psychoactivity, and Accumulates in Neurons” (Scientific Reports, 2016)

What was measured:
NMDA receptor (NMDAR) [1] = test system: T1, NMDA receptor (NMDAR); test: whole-cell patch clamp of NMDA-evoked currents, concentration-response at -70 mV; also NMDAR EPSCs; format: cell-based, Rattus norvegicus
T1 construct: gene Grin1; native receptor in dissociated cultures of rat hippocampal neurons

NMDA receptor (NMDAR) [2] = test system: T1, NMDA receptor (NMDAR); test: whole-cell patch clamp of NMDA-evoked currents, concentration-response at -70 mV; format: cell-based, Rattus norvegicus

C#CCCCNC1(c2ccccc2Cl)CCCCC1=O (racemic) [compound 1, A-NK]
IC50 (NMDA receptor (NMDAR) [1]): 1800 nM

CNC1(c2ccccc2Cl)CCCCC1=O (racemic) [ketamine]
IC50 (NMDA receptor (NMDAR) [2]): 400 nM

NC1(c2ccccc2Cl)CCCCC1=O (racemic) [norketamine]
IC50 (NMDA receptor (NMDAR) [1]): 2000 nM
